This assay concerns the target CB1-receptor (UniProt P20272). Briefly: binding of the pyrazoline compounds to CB1-receptors (Pharmacological Methods, Part I). Also on record: other: 10^−7 M; other: 10^−8 M; species or system human or rat. The method, then: I. In-vitro Determination of Affinity to CB1/CB2-Receptors
The in-vitro determination of the affinity of the inventive 4-substituted pyrazoline compounds to CB1/CB2-Rezeptors is carried out as described in the publication of Ruth A. Ross, Heather C. Brockie et al., “Agonist-inverse agonist characterisation at CB1 and CB2 cannabinoid receptors of L-759633, L759656 and AM630”, British Journal of Pharmacology, 126, 665-672, (1999), whereby the transfected human CB1 and CB2 receptors of Receptor Biology, Inc. are used. The radioligand used for both receptors is [^3H]-CP55940. The respective parts of the description is hereby incorporated by reference and forms part of the present disclosure.
Rat Cerebellum CB1 Binding
Binding affinity to CB1 receptor was evaluated according to a modification of the method described by Govaerts et al., Eur J Pharmac Sci 23, 233-243 (2004). The respective parts of the description is hereby incorporated by reference and forms part of the present disclosure.
Briefly, cerebellum from male wistar rats (250-300 g) were carefully dissected on ice and homogenates were prepared with Potter-Helveheim in a cold 50 mM Tris-HCl solution containing 5 mM MgCl2, 1 mM EDTA and 0.25 M sucrose, pH 7.4. The suspension was centrifuged at […] for 5 minutes. The supernatants were collected and centrifuged 50,000×g for 15 minutes. The resulting pellets were then resuspended in Tris-HCl buffer without sucrose, homogenized and incubated for 15 min at 37° C. in an orbital shaker bath and centrifuged again at 50,000×g for 15 min. Pellets were weighted, resuspended in Tris-HCl buffer without sucrose, homogenized with Ultraturrax at 13,500 rpm for 3×5 seconds and alicuoted in 0.9 ml volumes in Eppendorf tubes. Alicuotes were centrifuged at 20,800×g for 5 minutes, supernatants discarded and pellets were frozen at −80° C. until use. Total protein concentration was determined using the Bio-Rad Lowry method based kit. Competitive binding experiments were performed in presence of 1 nM [^3H]-CP 55,940 in siliconized glass tubes containing 100 μg protein/tube resuspended in 1 ml final volume of 50 mM Tris-HCl, 5 mM MgCl2, 1 mM EDTA, 0.5% (w/v) bovine serum albumin, pH 7.4. Compounds were present at various concentrations and the non specific binding was determined in the presence of 10 μM HU-210. After 1 hour incubation at 30° C., the suspension was rapidly filtered through 0.5% PEI pre-treated GF/B fiber filters on a 96-well harvester and washed 3 times with 3 ml ice-cold binding buffer without bovine serum albumin. Radioactivity on filters was measured with Wallac Winspectral 1414 counter by liquid scintillation in 6 ml Ecoscint H (National Diagnostics, U.K.). Assays were made in triplicates.
Binding data were analyzed by non-linear regression with the software GraphPad Prism Version 3.03.
The binding of the pyrazoline compounds of general formula I to CB1-receptors was determined according to the method described in the section Pharmacological Methods, Part I.

As for `CC[C@H]1C(C(=O)O)=NN(c2ccc(Cl)cc2Cl)[C@H]1c1ccc(Cl)cc1` (racemic) [Example 21, cis-5-(4-Chloro-phenyl)-1-(2,4-dichloro-phenyl)-4-ethyl-4,5-dihydro-1H-pyrazole-3-carboxylic acid], the Inhibition (10^−7 M) is reported as 23% and the Inhibition (10^−8 M, in %) amounted to 11.

For `C[C@@H]1C(C(=O)NN2CCOCC2)=NN(c2ccc(Cl)cc2Cl)[C@@H]1c1ccc(Cl)cc1` (relative stereo) [Example 101, cis-5-(4-chlorophenyl)-1-(2,4-dichlorophenyl)-4-methyl-N-morpholino-4,5-dihydro-1H-pyrazole-3-carboxamide], the Inhibition runs as follows: (10^−7 M) 34.9%; (10^−8 M, in %) 27.7.

Regarding `C[C@H]1C(C(=O)O)=NN(c2ccc(Cl)cc2Cl)[C@H]1c1cccs1` (racemic) [Example 367, cis-1-(2,4-dichlorophenyl)-4-methyl-5-(thiophen-2-yl)-4,5-dihydro-1H-pyrazole-3-carboxylic acid], the Inhibition by setting is: (10^−7 M) 11%; (10^−8 M, in %) 7.2.

For `C[C@@H]1C(C(=O)NN2CCCCC2)=NN(c2ccc(Cl)cc2Cl)[C@H]1c1ccc(O)cc1` (relative stereo) [Example 344, trans-1-(2,4-dichlorophenyl)-5-(4-hydroxyphenyl)-4-methyl-N-(piperidin-1-yl)-4,5-dihydro-1H-pyrazole-3-carboxamide], the Inhibition was −23.3% (10^−7 M) and −27.3 (10^−8 M, in %).

As to `COc1ccc([C@@H]2[C@H](C)C(C(=O)N[C@H]3CCCC[C@@H]3O)=NN2c2ccc(Cl)cc2Cl)cc1` (mixture of isomers) [Example 281, (+)-cis-1-(2,4-dichlorophenyl)-N-((1S,2S)-2-hydroxycyclohexyl)-5-(4-methoxyphenyl)-4-methyl-4,5-dihydro-1H-pyrazole-3-carboxamide], the Inhibition (10^−7 M) is recorded as 39.0% and the Inhibition (10^−8 M, in %) is given as 10.2.

For the compound `C[C@@H]1C(C(=O)O)=NN(c2ccc(Cl)cc2Cl)[C@H]1c1ccc(Br)cc1` (relative stereo) [Example 200, trans-5-(4-bromophenyl)-1-(2,4-dichlorophenyl)-4-methyl-4,5-dihydro-1H-pyrazole-3-carboxylic acid], the Inhibition is, setting by setting: (10^−7 M) −11.2%; (10^−8 M, in %) 3.

Regarding `C[C@H]1C(C(=O)O)=NN(c2ccc(Cl)cc2Cl)[C@H]1c1ccc(Br)cc1` (relative stereo) [Example 413, cis-5-(4-bromophenyl)-1-(2,4-dichlorophenyl)-4-methyl-4,5-dihydro-1H-pyrazole-3-carboxylic acid], the Inhibition reads like this: (10^−7 M) 17.3%; (10^−8 M, in %) 13.8.

For `C[C@@H]1C(C(=O)NN2CCCCCCC2)=NN(c2ccc(Cl)cc2Cl)[C@@H]1c1ccc(Cl)cc1` (relative stereo) [Example 120, cis-N-(azocan-1-yl)-5-(4-chlorophenyl)-1-(2,4-dichlorophenyl)-4-methyl-4,5-dihydro-1H-pyrazole-3-carboxamide], the Inhibition came to 75.5% (10^−7 M) and 37 (10^−8 M, in %).

Take `C[C@@H]1C(C(=O)NN2CCc3ccccc32)=NN(c2ccc(Cl)cc2Cl)[C@@H]1c1ccc(Br)cc1` (relative stereo) [Example 415, cis-5-(4-bromophenyl)-1-(2,4-dichlorophenyl)-N-(indolin-1-yl)-4-methyl-4,5-dihydro-1H-pyrazole-3-carboxamide]: the Inhibition was 79.3% (10^−7 M) and 32.3 (10^−8 M, in %).

As for `COc1ccc([C@@H]2[C@H](C)C(C(=O)N[C@H]3CCCC[C@@H]3O)=NN2c2ccc(Cl)cc2Cl)cc1` (mixture of isomers) [Example 282, (−)-cis-1-(2,4-dichlorophenyl)-N-((1S,2S)-2-hydroxycyclohexyl)-5-(4-methoxyphenyl)-4-methyl-4,5-dihydro-1H-pyrazole-3-carboxamide], the Inhibition runs as follows: (10^−7 M) 44.3%; (10^−8 M, in %) 9.6.

As to `C[C@H]1C(C(=O)O)=NN(c2ccc(Cl)cc2Cl)[C@H]1c1ccc(F)cc1` (racemic) [Example 221, cis-1-(2,4-dichlorophenyl)-5-(4-fluorophenyl)-4-methyl-4,5-dihydro-1H-pyrazole-3-carboxylic acid], the Inhibition was −6.3% (10^−7 M) and −2.2 (10^−8 M, in %).

With `C[C@@H]1C(C(=O)NN2Cc3cccc4cccc(c34)C2)=NN(c2ccc(Cl)cc2Cl)[C@@H]1c1ccc(Cl)cc1` (relative stereo) [Example 105, cis-5-(4-Chlorophenyl)-1-(2,4-dichlorophenyl)-4-methyl-4,5-dihydro-1H-pyrazole-3-carboxylic acid (1H,3H-benzo[de]isoquinolin-2-yl)-amide], the Inhibition came to 31.4% (10^−7 M) and 35.9 (10^−8 M, in %).

Consider `C[C@@H]1C(C(=O)NN2CCCCC2)=NN(c2ccc(Cl)cc2Cl)[C@@H]1c1ccc(Cl)cc1` [Example 420, (+)-cis-5-(4-chlorophenyl)-1-(2,4-dichlorophenyl)-4-methyl-N-(piperidin-1-yl)-4,5-dihydro-1H-pyrazole-3-carboxamide], for which the Inhibition is, setting by setting: (10^−7 M) 30.4%; (10^−8 M, in %) 2.8.

Consider `CC[C@@H]1C(C(=O)NN2CCCCC2)=NN(c2ccc(Cl)cc2Cl)[C@@H]1c1ccc(Br)cc1.Cl` (relative stereo) [Example 428, cis-5-(4-bromophenyl)-1-(2,4-dichlorophenyl)-4-ethyl-N-(piperidin-1-yl)-4,5-dihydro-1H-pyrazole-3-carboxamide hydrochloride], for which the Inhibition came out at 42.6% (10^−7 M) and 28.4 (10^−8 M, in %).

As for `C[C@@H]1C(C(=O)NN2CCCCC2)=NN(c2ccc(Cl)cc2Cl)[C@@H]1c1ccc(F)cc1.Cl` (relative stereo) [Example 417, cis-1-(2,4-dichlorophenyl)-5-(4-fluorophenyl)-4-methyl-N-(piperidin-1-yl)-4,5-dihydro-1H-pyrazole-3-carboxamide hydrochloride], the Inhibition turned out to be 38.5% (10^−7 M) and 14.8 (10^−8 M, in %).

Turning to `C[C@H]1C(C(=O)NN2CC3CCCC3C2)=NN(c2ccc(Cl)cc2Cl)[C@H]1c1ccc(F)cc1.Cl` (relative stereo) [Example 233, cis-1-(2,4-dichlorophenyl)-5-(4-fluorophenyl)-N-(hexahydrocyclopenta[c]pyrrol-2(1H)-yl)-4-methyl-4,5-dihydro-1H-pyrazole-3-carboxamide hydrochloride], the Inhibition (10^−7 M) is on record as 43.9% and the Inhibition (10^−8 M, in %) was found to be 27.9.

With `COC[C@H]1CCCN1NC(=O)C1=NN(c2ccc(Cl)cc2Cl)[C@H](c2ccc(Cl)cc2)[C@@H]1C.Cl` (mixture of isomers) [Example 106, cis-5-(4-chlorophenyl)-1-(2,4-dichlorophenyl)-N-((R)-2-(methoxymethyl)pyrrolidin-1-yl)-4-methyl-4,5-dihydro-1H-pyrazole-3-carboxamide hydrochloride], the Inhibition (10^−7 M) was 39% and the Inhibition (10^−8 M, in %) worked out at 20.4.

Consider `C[C@@H]1C(C(=O)N[C@H]2CCCC[C@@H]2O)=NN(c2ccc(Cl)cc2Cl)[C@@H]1c1ccc(Cl)cc1` (mixture of isomers) [Example 128, (+)-cis-5-(4-chlorophenyl)-1-(2,4-dichlorophenyl)-N-((1S,2S)-2-hydroxycyclohexyl)-4-methyl-4,5-dihydro-1H-pyrazole-3-carboxamide], for which the Inhibition reads like this: (10^−7 M) 35.3%; (10^−8 M, in %) 18.0.

In the case of `CC1C(C(=O)O)=NN(c2ccc(Cl)cc2Cl)C1c1ccccc1` (stereo not shown) [Example 429, 1-(2,4-dichlorophenyl)-4-methyl-5-phenyl-4,5-dihydro-1H-pyrazole-3-carboxylic acid], the Inhibition reads like this: (10^−7 M) −11%; (10^−8 M, in %) −10.1.

Take `C[C@H]1C(C(=O)NN2CCCC2)=NN(c2ccc(Cl)cc2Cl)[C@H]1c1ccc(Cl)cc1` (relative stereo) [Example 7, cis-5-(4-Chloro-phenyl)-1-(2,4-dichloro-phenyl)-4-methyl-4,5-dihydro-1H-pyrazole-3-carboxylic acid pyrrolidin-1-ylamide]: the Inhibition is, setting by setting: (10^−7 M) 41%; (10^−8 M, in %) 20.7.

For the origin of these results see patent publication US20070073056A1, “4-Substituted Pyrazoline Compounds, their Preparation and Use as Medicaments” (LABORATORIOS DEL DR. ESTEVE, S.A., priority 2005, published 2007).
